Experimental data as given in paper PMC7397056, “Design, Facile Synthesis and Characterization of Dichloro Substituted Chalcones and Dihydropyrazole Derivatives for Their Antifungal, Antitubercular and Antiproliferative Activities” (Molecules, 2020).
≈ marks a conversion by molar mass, not a printed value. Like-named read-outs stand apart in the source and are kept apart here.

What was measured:
[1] = system: prostate cancer cell lines (DU-145); test: Antiproliferative activity, MTT assay; format: cell-based; conditions: Homo sapiens, 48 h, mean ± SD (n = 3)
Description: (§1) The antiproliferative activity of the compounds was determined their IC50 values. Methotrexate (Mtx; positive control) was used as a reference standard for comparing the antiproliferative activity of the target compounds. The MTT (3-(4,5-dimethylthiazol-2-yl)-2,5-diphenyl tetrazolium bromide) assay was based on the reduction of the soluble MTT (0.5 mg mL^−1, 100 µL) into a blue-purple formazan product, mainly by the activity of mitochondrial reductase enzymes inside the living cells. The prostate cancer cell lines, DU-145 cells, were cultured in Dulbecco’s Modified Eagle Medium (DMEM) media at 37 °C and humidified at 5% CO2. Stock solutions of the test compounds (17–46) were prepared in 0.1% DMSO followed by dilution with sterile water to obtain the desired final concentrations. Briefly, the cells were placed on 96-well plates at 100 µL total volume with the density of 1 × 10^4 cells per well and were allowed to adhere for 24 h. Then the medium was replaced with fresh media containing different dilutions of the test compounds and incubated for additional 48 h at 37 °C in DMEM with 10% fetal bovine serum (FBS) medium. Subsequently, the medium was replaced with 90 μL of fresh DMEM without FBS. The above wells were treated with 10 μL of MTT reagent (5 mg/mL of stock solution in DMEM without FBS) and incubated at 37 °C for 3–4 h. The formed blue formazan crystals were dissolved in 200 μL of DMSO. The optical density was determined at 570 nm using a micro plate reader. The assay was performed in triplicate for three independent experiments. The same experimentation was also done to confirm that the DMSO (negative control) had no effect in the study. The results had good reproducibility between replicate wells with standard errors below 10%. The antiproliferative activity results measured as IC50 values in µg/mL were converted and expressed in µM. Additionally, the cytotoxic activity of the compounds was also measured employing the same protocol discussed above to assess their toxicity on normal human cell lines (L02).

[2] = Cytotoxic activity on normal cells, MTT assay; format: cell-based; conditions: L02 cells (normal human cell line)
Description: as §1

[3] = system: normal human cell lines (L02); test: Cytotoxic activity on normal cells, MTT assay; format: cell-based; conditions: normal human cell line L02
Description: as §1

[4] = system: Candida tropicalis (ATCC-1369); test: Antifungal activity, serial tube dilution method (MIC); conditions: Candida tropicalis, ATCC1369, 18 h, read-out: Antifungal activity MIC, C. tropicalis, serial tube dilution, 37 °C, 18 h, average of three
[5] = system: Aspergillus niger (ATCC-6275); test: as above; conditions: for MIC: Aspergillus niger; for Antifungal activity MIC, A. niger: serial tube dilution, 37 °C, 18 h, average of three
[6] = system: Mycobacterium tuberculosis H37Rv; test: Antitubercular activity, broth dilution assay (MIC); format: cell-based; conditions: for MIC: Middlebrook 7H9 broth, 37 °C, 21 days
[7] = ATCC6275, 18 h, read-out: Antifungal activity MIC, A. niger, serial tube dilution, 37 °C, 18 h, average of three
[8] = Mycobacterium tuberculosis, H37RV, 504 h
[9] = ratio of MICs vs pyrazinamide (MIC 25.34 µM)

Structure (SMILES) | IC50 [1] [µM] | IC50 at 48 h [2] [mg/L] | Cytotoxic activity IC50, L02 [3] [mg/L] | MIC [4] [µM] | MIC [5, 7] [µM] | MIC [6, 8] [µM] | fold improvement in antitubercular activity vs. compound 2 ([6]; comparator compound 2 (MIC 343.44 µM)) | fold better activity than the standard pyrazinamide [6, 9] [fold] | melting point [°C] | MIC ([5]; ATCC6275, read-out: Antifungal MIC, Aspergillus niger) [mg/L] | Antifungal activity MIC, A. niger [5] [µM] | MIC [6] [µM] | fold less activity than pyrazinamide [6, 9] [fold] | fold more antitubercular activity than the chalcones 14 and 16 ([6]; 29 vs 14, 31 vs 16) [fold] | fold reduction in antitubercular activity compared with chalcone 15 ([6]; comparator compound 15) [fold]
CN(Cc1cnc2nc(N)nc(N)c2n1)c1ccc(C(=O)N[C@@H](CCC(=O)O)C(=O)O)cc1 [Methotrexate, reference compound] | 11 ± 1 | > 75 | >75 |  |  |  |  |  |  |  |  |  |  |  | 
O=C(/C=C/c1ccc(C(F)(F)F)cc1)c1ccc(Cl)c(Cl)c1 [Compound 9, (E)-1-(3,4-dichlorophenyl)-3-(4-trifluoromethylphenyl)prop-2-en-1-one] | 292 ± 1 | > 50 |  | 11.6 (≈ 4 µg/mL) | 11.6 | 9.03 (≈ 3.12 µg/mL) | approximately 40 fold | 2.8 | 169 |  |  |  |  |  | 
Fc1ccc(C2CC(c3ccc(Cl)c(Cl)c3)=NN2c2ccccc2)cc1 (stereo not drawn) [Compound 18, 3-(3,4-dichlorophenyl)-1-phenyl-5-(4-fluorophenyl)-4,5-dihydro-1H-pyrazole] | 119 ± 2 | > 75 |  | 41.5 (≈ 16 µg/mL) | 28.8 |  |  |  | 195 | 20.8 | 20.76 | 32.44 (≈ 12.5 µg/mL) | 1.2 |  | 
O=C(/C=C/c1cccnc1)c1ccc(Cl)c(Cl)c1 [Compound 12, (E)-1-(3,4-dichlorophenyl)-3-(pyridin-3-yl)prop-2-en-1-one] | 256 ± 2 | > 50 |  | 14.4 (≈ 4.01 µg/mL) | 28.9 | 22.6 (≈ 6.27 µg/mL) |  |  | 191 |  |  |  |  |  | 
O=C(/C=C/c1ccccn1)c1ccc(Cl)c(Cl)c1 [Compound 11, (E)-1-(3,4-dichlorophenyl)-3-(pyridin-2-yl)prop-2-en-1-one] | 353 ± 2 | > 50 |  | 28.9 (≈ 8.03 µg/mL) | 28.9 | 45.1 (≈ 12.5 µg/mL) |  |  | 156 |  |  |  |  |  | 
Clc1ccc(C2CC(c3ccc(Cl)c(Cl)c3)=NN2c2ccccc2)cc1 (stereo not drawn) [Compound 20, 3-(3,4-dichlorophenyl)-1-phenyl-5-(4-chlorophenyl)-4,5-dihydro-1H-pyrazole] | 149 ± 2 | > 75 |  | 39.8 (≈ 16 µg/mL) | 28.8 |  |  |  | 261 |  | 19.91 | 31.11 (≈ 12.5 µg/mL) | 1.2 |  | 
Clc1ccc(C2=NN(c3ccccc3)C(c3ccc4c(c3)OCO4)C2)cc1Cl (stereo not drawn) [Compound 25, 3-(3,4-dichlorophenyl)-1-phenyl-5-(benzo[d][1,3]dioxol-5-yl)-4,5-dihydro-1H-pyrazole] | 131 ± 2 | > 75 |  | 19.4 (≈ 8 µg/mL) | 19.4 | 60.8 (≈ 25 µg/mL) |  |  | 212 |  |  |  |  |  | 
Clc1ccc(C2=NN(c3ccccc3)C(c3ccco3)C2)cc1Cl (stereo not drawn) [Compound 29, 3-(3,4-dichlorophenyl)-1-phenyl-5-(furan-2-yl)-4,5-dihydro-1H-pyrazole] | 162 ± 2 | > 75 |  | 11.2 (≈ 4 µg/mL) | 11.2 | 17.5 (≈ 6.25 µg/mL) |  |  | 200 |  |  |  |  | 2.6 | 
Clc1ccc(C2=NN(c3ccccc3)C(c3ccc[nH]3)C2)cc1Cl (stereo not drawn) [Compound 30, 3-(3,4-dichlorophenyl)-1-phenyl-5-(1H-pyrrol-2-yl)-4,5-dihydro-1H-pyrazole] | 84 ± 2 | > 75 |  | 44.9 (≈ 16 µg/mL) | 44.9 | 70.2 (≈ 25 µg/mL) |  |  | 171 |  |  |  |  |  | 1.5
